Assay results as given in BindingDB's records for PubMed 35707152 (Max Planck Institute of Colloids and Interfaces, 2022).

Columns and labels:
[1] = Binding affinity to DC-SIGN ECD (66 to 404 residue) (unknown origin) expressed in Escherichia coli BL21 assessed as dissociation constant by STD reporter assay based NMR spectroscopy analysis
[2] = Binding affinity to N-terminal His-tagged DC-SIGN CRD (194 to 331 residues) (unknown origin) expressed in Escherichia coli BL21 assessed as dissociation constant by HSQC-NMR spectrum analysis

Structure (SMILES) | Kd [1] | Kd [2]
CN(C)C(=O)c1c[nH]c2ccc(F)cc2c1=O | 2900 µM | –
CCOC(=O)c1cc(=O)c2cccc(C(=O)OCC)c2[nH]1 | 600 µM | –
CCOC(=O)c1cc(=O)c2cccc(F)c2[nH]1 | 500 µM | 400 µM
O=C(O)c1cnc2ccccc2c1O | 2200 µM | –
O=c1c(S(=O)(=O)c2ccccc2)c[nH]c2cc(F)ccc12 | 1900 µM | –
O=C(O)c1c[nH]c2ccc(S(=O)(=O)N3CCCCC3)cc2c1=O | 500 µM | –

These reach a lower Kd [1]. Values come first.

Kd [1] | Kd [2] | Structure (SMILES)
400 µM | 500 µM | CN(C)C(=O)c1c[nH]c2cc(N(C)C)ccc2c1=O
300 µM | 400 µM | CN(C)C(=O)c1c[nH]c2c(F)cccc2c1=O
300 µM | – | CN(C)C(=O)c1ccc2c(=O)c(S(=O)(=O)c3ccccc3)c[nH]c2c1
100 µM | – | CCOC(=O)c1c[nH]c2c(C(=O)OCC)cccc2c1=O
200 µM | 200 µM | CCOC(=O)c1cnc2ccccc2c1O
300 µM | – | CCOC(=O)c1c[nH]c2ccc(N(C)C)cc2c1=O
